Assay results: US20250136934A1, “PRODUCTION OF INDUCED MIDBRAIN DOPAMINERGIC PROGENITOR CELLS FROM PLURIPOTENT STEM CELLS” (NUWACELL BIOTECHNOLOGIES CO., LTD., priority 2023, published 2025)

How the values were obtained:
EN1 and LMX1A = assay: qRT-PCR analysis of ventral midbrain markers EN1 and LMX1A in imDAP cells; format: cell-based, human; settings: 3-step protocol
Description: (§1) (1) qRT-PCR • 1. For qRT-PCR analysis of mRNA gene expression, RNA should be harvested from at least 2×10^6 cells. • 2. Harvest cells, add 350 μl of buffer RLT+1% (vol/vol) β-mercaptoethanol to the well, transfer the lysate to a 1.5 ml tube, and put it immediately on ice. • 3. Perform RNA extraction using the Tiangen Kit (DP430) and following the manufacturer's protocol ‘Purification of total RNA from animal and human cells’. • 4. When the RNA extraction was completed, determine the RNA concentration using a Nanodrop instrument. • 5. Perform the first-strand cDNA synthesis reaction with 1 μg of RNA using the HiScript™ II Q RT SuperMIX for qPCR (+gDNA wiper) Kit (Vazyme, #R223-01) for RT-qPCR. Follow the manufacturer's ‘First-Strand cDNA Synthesis’ protocol. This reaction would yield a 20 μl product. • 6. Dilute 10 μl cDNA product in 80 μl of nuclease-free water. • 7. Pipette the diluted cDNA product (1 μl), Sybr green master mix (5 μl, Transgen, #AQ131) and 0.95 μM reverse/forward primer mix (4 μl) into a 384-well PCR plate in triplicate, either manually or using an automated pipetting robot. The complete primer panel included the target genes and the housekeeping gene (RPL13A). In the analysis, the expression level of gene was determined by using a sample of undifferentiated hPSCs as control. • 8. Analyze the samples by running a quantitative PCR on the LightCycler 480 instrument using a 40x cycle two-step protocol with a 60° C., 60 sec annealing/elongation step and a 95° C., 30 sec denaturation step. The average CT value from the three technical replicates was used for calculation of relative gene expression using the ΔΔCT method. […]
On Day-1, EB formation (Stage 1) was carried out by dissociating hiPSCs (Nuwacell) to form a single-cell suspension and resuspending it in Epic medium (Nuwacell, #RP01001) containing 10 μM Blebbistatin (MCE, #HY-13441) in T25 flasks on a belly dancer and culturing the cells overnight. […] On Day 16 (at the end of S2-2), imDAP cells were collected and analyzed by qRT-PCR assay for ventral midbrain marker EN1 and LMX1A. […]

PAX6 = assay: qRT-PCR analysis of dorsal midbrain marker PAX6 in imDAP cells; format: cell-based, human; settings: exposure to Boost-CHIR 7.5 μM from Day 4 compared to from Day 5
Description: as §1, with “Pipette the diluted cDNA product (1 μl), Sybr green master mix (5 μl, Transgen, #AQ131) and 0.95 μM reverse/forward primer mix (4 μl) into a 384-well PCR plate in triplicate, either manually or using an automated pipetting robot. The complete primer panel included the target genes and the housekeeping gene (RPL13A).” left out, “step.” for “step. The average CT value from the three technical replicates was used for calculation of relative gene expression using the ΔΔCT method.”

`Cc1cnc(-c2cnc(NCCNc3ccc(C#N)cn3)nc2-c2ccc(Cl)cc2Cl)[nH]1` [CHIR, CHIR99021] was tested, and the “expression levels of EN1 and LMX1A” value (EN1 and LMX1A; CHIR 5 μM and 7.5 μM compared to 10 μM) was “better results”, the “expression levels of EN1 and LMX1A” value (EN1 and LMX1A; CHIR 7.5 μM Stage 2-2 from Day 3 to Day 6 versus Day 3 to Day 10) was “comparable” and the “expression levels of EN1 and LMX1A” value (EN1 and LMX1A; high CHIR 5, 7.5 or 10 μM Day 3 to Day 10, relative to the 2-step protocol) was “increased”. For the same compound, the “expression of PAX6” value (PAX6) was “lower”.
